Assay results as given in ChEMBL document CHEMBL4311943, “3-[(1S,2S,3R)-2,3-Difluoro-1-hydroxy-7-methylsulfonylindan-4-yl]oxy-5-fluorobenzonitrile (PT2977), a Hypoxia-Inducible Factor 2α (HIF-2α) Inhibitor for the Treatment of Clear Cell Renal Cell Carcinoma” (J Med Chem, 2019).
Calls of active or inactive are those of the source. The rule behind the calls is not given here.

How the values were obtained:
[1] = molecular target: Neuropeptide Y receptor type 2 (Homo sapiens) (UniProt P49146); assay: Activity at human NPY2 receptor at 10 uM
[2] = Cmin in patient with advanced solid tumor at 120 mg, po administered once daily measured on day 15 measured after 24 hrs; type: ADME, organism-based; conditions: human, in vivo, read-out: Cmin
[3] = Protein binding in mouse plasma at 10 uM measured after 4 hrs by LC-MS/MS analysis; type: ADME, cell-free; conditions: read-out: PPB (converted)
[4] = molecular target: Cytochrome P450 2B6 (Homo sapiens, UniProt P20813); assay: Inhibition of CYP2B6 in human liver microsomes up to 50 uM using bupropion as substrate measured after 10 mins in presence of NADPH by LC-MS/MS analysis; type: ADME
[5] = molecular target: Cytochrome P450 3A4 (Homo sapiens, UniProt P08684); assay: Inhibition of CYP3A4 in human liver microsomes up to 50 uM using testosterone as substrate measured after 10 mins in presence of NADPH by LC-MS/MS analysis; type: ADME
[6] = Volume of distribution at steady state in Sprague-Dawley rat at 1 mg/kg, iv by UPLC-MS analysis; type: ADME, organism-based; conditions: in vivo, read-out: Vdss
[7] = Half life in Beagle dog at 1 mg/kg, iv by UPLC-MS analysis; type: ADME, organism-based, Canis lupus familiaris; conditions: in vivo
[8] = Clearance in Beagle dog at 1 mg/kg, iv by UPLC-MS analysis; type: ADME, organism-based, Canis lupus familiaris; conditions: in vivo
[9] = Dose normalized AUClast in Beagle dog at 5 mg/kg, po administered via gavage by UPLC-MS analysis; type: ADME, organism-based, Canis lupus familiaris; conditions: in vivo
[10] = Drug level in plasma of SCID Beige mouse xenografted with human 786-O cells at 1 mg/kg, po administered twice daily via gavage for 3 days measured 12 hrs post-last dose; type: ADME, organism-based
[11] = Drug level in plasma of SCID Beige mouse xenografted with human 786-O cells at 3 mg/kg, po administered twice daily via gavage for 3 days measured 12 hrs post-last dose; type: ADME, organism-based
[12] = Half life in patient with advanced solid tumor at 20 mg, po administered once daily measured on day 15; type: ADME, organism-based; conditions: human, in vivo
[13] = Cmax in patient with advanced solid tumor at 20 mg, po administered once daily measured on day 15; type: ADME, organism-based; parameters: dose 20 mg, route oral; conditions: human, in vivo
[14] = Cmax in patient with advanced solid tumor at 40 mg, po administered once daily measured on day 15; type: ADME, organism-based; parameters: dose 40 mg, route oral; conditions: human, in vivo
[15] = Cmax in patient with advanced solid tumor at 240 mg, po administered once daily measured on day 15; type: ADME, organism-based; parameters: dose 240 mg, route oral; conditions: human, in vivo
[16] = AUClast in patient with advanced solid tumor at 40 mg, po administered once daily measured on day 15; type: ADME, organism-based; parameters: dose 40 mg, time 0 - last, route oral; conditions: human, in vivo
[17] = AUClast in patient with advanced solid tumor at 120 mg, po administered once daily measured on day 15; type: ADME, organism-based; parameters: dose 120 mg, route oral, time 0 - last; conditions: human, in vivo
[18] = molecular target: Muscarinic acetylcholine receptor M2 (Homo sapiens) (UniProt P08172); assay: Activity at human M2 receptor at 10 uM
[19] = molecular target: Muscarinic acetylcholine receptor M3 (Homo sapiens) (UniProt P20309); assay: Activity at human M3 receptor at 10 uM
[20] = molecular target: Adenosine receptor A1 (Homo sapiens) (UniProt P30542); assay: Activity at human adenosine A1 receptor at 10 uM
[21] = molecular target: CDK2/Cyclin A2 (Homo sapiens) (UniProt P24941+P20248); assay: Activity at human CDK2/cyclinA at 10 uM; type: protein-complex assay
[22] = molecular target: Tyrosine-protein kinase ABL1 (Homo sapiens) (UniProt P00519); assay: Activity at human Abl at 10 uM
[23] = molecular target: Voltage-gated L-type calcium channel (Homo sapiens, UniProt Q13936+Q13698+Q01668+O60840); assay: Activity at human L-type calcium channel at 10 uM; type: protein assay
[24] = molecular target: Inward rectifier potassium channel 2 (Homo sapiens, UniProt P63252); assay: Activity at human Kir2.1 at 10 uM
[25] = molecular target: Potassium/sodium hyperpolarization-activated cyclic nucleotide-gated channel 4 (Homo sapiens) (UniProt Q9Y3Q4); assay: Activity at human HCN4 at 10 uM
[26] = molecular target: Vasoactive intestinal polypeptide receptor 2 (Homo sapiens) (UniProt P41587); assay: Activity at human VPAC2 at 10 uM
[27] = molecular target: Vasopressin V2 receptor (Homo sapiens) (UniProt P30518); assay: Activity at human V2 receptor at 10 uM
[28] = molecular target: Substance-P receptor (Homo sapiens) (UniProt P25103); assay: Activity at human NK1 receptor at 10 uM
[29] = molecular target: Neuromedin-K receptor (Homo sapiens) (UniProt P29371); assay: Activity at human NK3 receptor at 10 uM
[30] = molecular target: Parathyroid hormone/parathyroid hormone-related peptide receptor (Homo sapiens) (UniProt Q03431); assay: Activity at human PTH1 receptor at 10 uM
[31] = species: Homo sapiens; assay: Activity at human Proteinase activated receptor at 10 uM
[32] = molecular target: Oxytocin receptor (Homo sapiens) (UniProt P30559); assay: Activity at human oxytocin receptor at 10 uM
[33] = molecular target: Mu-type opioid receptor (Homo sapiens) (UniProt P35372); assay: Activity at human mu opioid receptor at 10 uM
[34] = molecular target: Delta-type opioid receptor (Homo sapiens) (UniProt P41143); assay: Activity at human delta opioid receptor at 10 uM
[35] = molecular target: Kappa-type opioid receptor (Homo sapiens) (UniProt P41145); assay: Activity at human kappa opioid receptor at 10 uM
[36] = molecular target: Lysophosphatidic acid receptor 1 (Homo sapiens) (UniProt Q92633); assay: Activity at human LPA1 receptor at 10 uM
[37] = molecular target: Galanin receptor type 1 (Homo sapiens) (UniProt P47211); assay: Activity at human GAL1 receptor at 10 uM
[38] = molecular target: D(1A) dopamine receptor (Homo sapiens) (UniProt P21728); assay: Activity at human D1 receptor at 10 uM
[39] = molecular target: Glycogen synthase kinase-3 beta (Homo sapiens) (UniProt P49841); assay: Activity at human GSK3beta at 10 uM
[40] = molecular target: Ribosomal protein S6 kinase beta-1 (Homo sapiens) (UniProt P23443); assay: Activity at human p70S6K at 10 uM
[41] = molecular target: Phosphorylase b kinase gamma catalytic chain, liver/testis isoform (Homo sapiens) (UniProt P15735); assay: Activity at human PhKgamma2 at 10 uM
[42] = molecular target: Protein kinase C beta type (Homo sapiens) (UniProt P05771); assay: Activity at human PKCbeta1 at 10 uM
[43] = molecular target: Protein kinase C beta type (Homo sapiens) (UniProt P05771); assay: Activity at human PKCbeta2 at 10 uM
[44] = molecular target: Protein kinase C gamma type (Homo sapiens) (UniProt P05129); assay: Activity at human PKCgamma at 10 uM
[45] = molecular target: Protein kinase C zeta type (Homo sapiens) (UniProt Q05513); assay: Activity at human PKCzeta at 10 uM
[46] = molecular target: Protein kinase C theta type (Homo sapiens) (UniProt Q04759); assay: Activity at human PKCtheta at 10 uM
[47] = molecular target: cGMP-dependent protein kinase 1 (Homo sapiens) (UniProt Q13976); assay: Activity at human PKG1alpha at 10 uM

Chain of Protein kinase C beta type (Homo sapiens) (P05771 2-671 limits assumed): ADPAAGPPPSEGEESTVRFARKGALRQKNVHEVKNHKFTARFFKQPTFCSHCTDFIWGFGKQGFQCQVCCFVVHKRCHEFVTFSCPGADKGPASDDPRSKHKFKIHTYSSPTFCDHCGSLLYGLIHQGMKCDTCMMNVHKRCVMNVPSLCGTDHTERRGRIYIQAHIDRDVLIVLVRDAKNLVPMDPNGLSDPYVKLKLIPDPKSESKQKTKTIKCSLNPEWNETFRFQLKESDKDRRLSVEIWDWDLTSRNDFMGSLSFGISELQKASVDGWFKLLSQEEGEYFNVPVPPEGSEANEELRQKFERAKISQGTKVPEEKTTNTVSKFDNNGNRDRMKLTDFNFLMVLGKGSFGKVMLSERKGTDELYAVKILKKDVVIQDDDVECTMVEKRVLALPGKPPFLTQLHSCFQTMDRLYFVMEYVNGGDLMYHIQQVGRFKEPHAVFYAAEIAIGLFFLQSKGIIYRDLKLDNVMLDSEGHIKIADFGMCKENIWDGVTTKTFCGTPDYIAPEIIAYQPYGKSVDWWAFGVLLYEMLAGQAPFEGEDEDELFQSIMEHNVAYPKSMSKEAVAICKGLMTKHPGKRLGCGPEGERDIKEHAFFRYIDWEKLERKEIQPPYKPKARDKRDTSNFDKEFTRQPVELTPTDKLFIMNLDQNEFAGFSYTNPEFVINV
Chain of D(1A) dopamine receptor (Homo sapiens) (P21728 whole entry): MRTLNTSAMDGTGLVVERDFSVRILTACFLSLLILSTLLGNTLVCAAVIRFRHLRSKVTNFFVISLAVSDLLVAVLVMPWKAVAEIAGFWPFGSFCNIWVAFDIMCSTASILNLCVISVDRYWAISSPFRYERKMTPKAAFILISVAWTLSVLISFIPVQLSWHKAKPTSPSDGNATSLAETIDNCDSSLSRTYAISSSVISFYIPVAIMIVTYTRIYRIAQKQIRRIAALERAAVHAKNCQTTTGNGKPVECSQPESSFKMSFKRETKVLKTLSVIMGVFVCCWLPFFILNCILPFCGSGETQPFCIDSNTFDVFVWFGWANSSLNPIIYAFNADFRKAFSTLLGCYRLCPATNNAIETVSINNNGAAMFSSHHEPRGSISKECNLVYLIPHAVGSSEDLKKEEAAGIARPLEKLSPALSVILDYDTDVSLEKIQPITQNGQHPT
Chain of Adenosine receptor A1 (Homo sapiens) (P30542 whole entry): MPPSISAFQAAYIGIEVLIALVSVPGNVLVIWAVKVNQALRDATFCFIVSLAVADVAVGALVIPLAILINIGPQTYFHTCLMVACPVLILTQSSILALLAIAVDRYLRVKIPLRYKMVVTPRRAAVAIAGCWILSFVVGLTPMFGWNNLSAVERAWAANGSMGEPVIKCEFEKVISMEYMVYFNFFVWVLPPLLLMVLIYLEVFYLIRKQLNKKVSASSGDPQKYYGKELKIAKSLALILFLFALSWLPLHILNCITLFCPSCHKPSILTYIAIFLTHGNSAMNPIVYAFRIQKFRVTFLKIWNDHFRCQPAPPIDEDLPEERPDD
Chain of Neuropeptide Y receptor type 2 (Homo sapiens) (P49146 whole entry): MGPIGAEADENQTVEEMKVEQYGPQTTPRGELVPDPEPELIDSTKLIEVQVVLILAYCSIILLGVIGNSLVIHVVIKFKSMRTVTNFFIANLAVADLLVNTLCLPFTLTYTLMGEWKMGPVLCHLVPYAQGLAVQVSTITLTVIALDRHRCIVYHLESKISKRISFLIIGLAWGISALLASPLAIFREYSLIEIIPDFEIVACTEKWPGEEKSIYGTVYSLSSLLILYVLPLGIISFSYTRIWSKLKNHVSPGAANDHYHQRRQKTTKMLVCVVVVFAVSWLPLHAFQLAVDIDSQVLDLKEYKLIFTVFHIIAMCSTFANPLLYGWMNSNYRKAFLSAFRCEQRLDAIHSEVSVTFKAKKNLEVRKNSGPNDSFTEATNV
Chain of Glycogen synthase kinase-3 beta (Homo sapiens) (P49841 whole entry, looked up): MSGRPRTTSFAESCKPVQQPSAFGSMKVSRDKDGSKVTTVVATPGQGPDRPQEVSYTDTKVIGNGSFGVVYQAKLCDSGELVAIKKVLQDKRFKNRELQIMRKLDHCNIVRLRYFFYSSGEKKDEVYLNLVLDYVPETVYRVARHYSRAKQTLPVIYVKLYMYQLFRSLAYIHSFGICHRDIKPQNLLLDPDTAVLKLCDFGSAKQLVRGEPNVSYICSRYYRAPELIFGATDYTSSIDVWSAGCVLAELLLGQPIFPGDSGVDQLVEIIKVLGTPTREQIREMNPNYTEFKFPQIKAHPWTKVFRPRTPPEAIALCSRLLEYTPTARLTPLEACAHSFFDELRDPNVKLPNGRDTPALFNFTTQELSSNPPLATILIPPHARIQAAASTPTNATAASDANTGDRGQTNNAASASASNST
Chain of Potassium/sodium hyperpolarization-activated cyclic nucleotide-gated channel 4 (Homo sapiens) (Q9Y3Q4 whole entry): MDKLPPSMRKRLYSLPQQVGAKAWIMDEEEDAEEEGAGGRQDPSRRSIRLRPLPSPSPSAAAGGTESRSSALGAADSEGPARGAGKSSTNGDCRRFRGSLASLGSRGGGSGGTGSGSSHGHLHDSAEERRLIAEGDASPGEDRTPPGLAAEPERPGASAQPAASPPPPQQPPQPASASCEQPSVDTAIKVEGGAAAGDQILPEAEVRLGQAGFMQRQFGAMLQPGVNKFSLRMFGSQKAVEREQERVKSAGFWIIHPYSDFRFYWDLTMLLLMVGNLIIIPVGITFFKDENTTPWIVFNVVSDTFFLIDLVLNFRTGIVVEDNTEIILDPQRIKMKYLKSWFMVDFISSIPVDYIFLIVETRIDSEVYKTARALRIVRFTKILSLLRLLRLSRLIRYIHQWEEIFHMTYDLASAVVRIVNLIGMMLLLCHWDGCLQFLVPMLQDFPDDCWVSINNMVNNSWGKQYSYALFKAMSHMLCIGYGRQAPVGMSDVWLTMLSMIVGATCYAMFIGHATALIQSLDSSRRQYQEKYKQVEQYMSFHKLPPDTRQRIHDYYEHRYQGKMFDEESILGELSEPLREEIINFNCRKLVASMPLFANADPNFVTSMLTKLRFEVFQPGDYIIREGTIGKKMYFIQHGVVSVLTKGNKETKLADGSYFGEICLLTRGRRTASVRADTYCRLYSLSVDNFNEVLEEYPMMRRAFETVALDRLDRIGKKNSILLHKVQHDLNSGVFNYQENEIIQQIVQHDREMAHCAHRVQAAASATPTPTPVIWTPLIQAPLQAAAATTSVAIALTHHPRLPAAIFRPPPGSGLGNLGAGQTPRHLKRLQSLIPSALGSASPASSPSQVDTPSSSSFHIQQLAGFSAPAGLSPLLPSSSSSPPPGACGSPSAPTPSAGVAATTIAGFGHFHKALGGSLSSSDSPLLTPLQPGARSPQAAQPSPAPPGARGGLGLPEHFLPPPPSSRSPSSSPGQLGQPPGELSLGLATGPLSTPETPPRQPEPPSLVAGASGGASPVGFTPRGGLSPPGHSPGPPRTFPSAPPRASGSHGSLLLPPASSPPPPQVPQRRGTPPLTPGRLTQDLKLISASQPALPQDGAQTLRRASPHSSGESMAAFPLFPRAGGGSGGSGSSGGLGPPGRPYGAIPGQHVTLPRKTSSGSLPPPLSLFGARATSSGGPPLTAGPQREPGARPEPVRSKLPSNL
Chain of Inward rectifier potassium channel 2 (P63252 whole entry): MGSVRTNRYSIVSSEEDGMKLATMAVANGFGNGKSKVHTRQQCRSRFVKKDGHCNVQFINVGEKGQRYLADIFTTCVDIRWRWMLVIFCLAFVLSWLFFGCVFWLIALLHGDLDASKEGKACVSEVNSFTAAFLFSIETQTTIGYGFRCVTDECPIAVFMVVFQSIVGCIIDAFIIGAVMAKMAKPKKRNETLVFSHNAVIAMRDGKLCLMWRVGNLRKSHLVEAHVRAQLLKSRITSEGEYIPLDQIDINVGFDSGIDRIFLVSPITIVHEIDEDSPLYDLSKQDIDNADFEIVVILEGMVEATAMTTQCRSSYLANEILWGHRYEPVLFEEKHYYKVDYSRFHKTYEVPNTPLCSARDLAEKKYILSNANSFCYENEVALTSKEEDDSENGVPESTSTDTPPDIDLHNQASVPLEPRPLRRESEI
Chain of Lysophosphatidic acid receptor 1 (Homo sapiens) (Q92633 whole entry): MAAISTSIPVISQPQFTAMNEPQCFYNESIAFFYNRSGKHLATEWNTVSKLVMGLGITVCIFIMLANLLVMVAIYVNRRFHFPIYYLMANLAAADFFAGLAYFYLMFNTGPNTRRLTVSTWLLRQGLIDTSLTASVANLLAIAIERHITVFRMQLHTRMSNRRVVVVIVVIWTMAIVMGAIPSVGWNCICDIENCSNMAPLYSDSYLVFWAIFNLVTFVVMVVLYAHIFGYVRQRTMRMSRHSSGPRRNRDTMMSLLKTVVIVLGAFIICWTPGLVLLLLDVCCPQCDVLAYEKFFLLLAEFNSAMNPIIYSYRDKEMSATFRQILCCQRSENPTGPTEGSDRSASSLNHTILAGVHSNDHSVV

Activity [1]: inactive
concentration at 24 h [2]: 500 ng/mL
fraction unbound at 4 h, 10 µM [3]: 0.44
inhibition (INH) [4]: Not Active
inhibition (INH) [5]: Not Active
Vd [6]: 1.6 L/kg
half-life [7]: 14 h
clearance [8]: 1.3 mL/min/kg
AUClast/dose [9]: 60 µM·h
concentration at 12 h [10]: 27 ng/mL
concentration at 12 h [11]: 59 ng/mL
half-life [12]: 12.5 h
Cmax [13]: 200 ng/mL
Cmax [14]: 500 ng/mL
Cmax [15]: 2700 ng/mL
AUC(0-t) [16]: 7100 ng·h/mL
AUC(0-t) [17]: 25900 ng·h/mL
Activity [18]: inactive
Activity [19]: inactive
Activity [20]: inactive
Activity [21]: inactive
Activity [22]: inactive
Activity [23]: Not Active
Activity [24]: Not Active
Activity [25]: inactive
Activity [26]: inactive
Activity [27]: inactive
Activity [28]: inactive
Activity [29]: inactive
Activity [30]: inactive
Activity [31]: inactive
Activity [32]: inactive
Activity [33]: inactive
Activity [34]: inactive
Activity [35]: inactive
Activity [36]: inactive
Activity [37]: inactive
Activity [38]: inactive
Activity [39]: inactive
Activity [40]: inactive
Activity [41]: inactive
Activity [42]: inactive
Activity [43]: inactive
Activity [44]: inactive
Activity [45]: inactive
Activity [46]: inactive
Activity [47]: inactive
Structure (SMILES): CS(=O)(=O)c1ccc(Oc2cc(F)cc(C#N)c2)c2c1[C@H](O)[C@H](F)[C@@H]2F [BELZUTIFAN]
